# Source: US11091495B2, “Substituted imidazo[1,2-c]pyrimidines as PRC2 inhibitors” (Mirati Therapeutics, Inc., priority 2018, dated 2021)
# Read-outs that look alike come from different tables or passages of the source.
# Legend:
# [1] = test system: PRC2-mediated histone H3 Lys27 trimethylation in Pfeiffer cells (EZH2 A677G); assay: Tri-Methyl Histone H3 (Lys 27) sandwich ELISA in Pfeiffer cells; format: cell-based, human; details: 96 hours incubation, read-out: IC50 (nM), Inhibition of EZH2-mediated Histone H3 Trimethylation
# Source text: The Pfeiffer cell line was established from a […] from a patient having metastatic diffuse large B-cell lymphoma (DLBCL). This cell line expresses a mutant form of the EZH2 enzyme (A677G) that results in enhanced EZH2 activity leading to increased methylation of histone H3 Lys27. Increased trimethylation of histone H3 Lys27 is believed to be implicated in tumorgenesis and poor clinical prognosis in lymphomas (McCabe et al., (2012) Nature 492:108-112).
# Inhibition of PRC2-mediated histone H3 methylation by compounds of Formula (I) was measured by ELISA using a Tri-Methyl Histone H3 (Lys 27) Sandwich ELISA Kit (Cell Signaling Tech #7866C) in accordance with the manufacturer's instructions. Briefly, Pfeiffer cells were cultured in RPMI medium supplemented with 10% fetal bovine serum and 1% penicillin and 1% streptomycin in 96 well culture plates at 37° C. to a density of 8000 cells/90 μl/well and the cells were harvested. A series of 3-fold serial dilutions of each test compound of Formula (I) were prepared in RPMI medium and added to the cells at final concentrations ranging from 1 μM to 0.15 nM. The plates were incubated at 37° C. for 96 hours.
# After incubation, the cells were pelleted by centrifugation in a pre-cooled 4° C. rotor at 1,100 rpm for 10 min and the supernatant was removed by aspiration. The cell pellet was resuspended in 55 μl of Lysis Buffer (0.4M HCl) and incubated on ice with periodic shaking for 30 minutes. The lysed cells were subjected to centrifugation at 4,200 rpm for 10 min at 4° C. and the supernatant containing acid-soluble proteins was collected and the remainder discarded. The acid-soluble proteins were brought to a neutral pH by the addition of 20 μl of Neutralization Buffer (1 M Sodium phosphate, dibasic (pH 12.5), 2.5 mM DTT and 1 mM PMSF) and the neutralized lysates were analyzed by ELISA.
# A 65 μl aliquot of each cell lysate was added to a well of a microwell strip, the microwells were sealed using tape and incubated either at 37° C. for two hours or at 4° C. overnight. After incubation, the tape was removed at the microwells were washed four times using 200 μl of 1× Wash Buffer. To each washed microwell, a 100 μl aliquot of an anti-trimethyl histone H3 Lys27 Detection Antibody solution was added and the microwells were incubated at 37° C. for one hour. […]
# A 100 μl aliquot of an HRP-linked secondary antibody was added to each well, the wells were sealed with tape and incubated at 37° C. for 30 min. […] The degree of histone H3 trimethylation was determined using a spectrophotometric readout by measuring the absorbance at 450 nm and then calculating the amount of trimethylated histone H3. A=≤100 nM; B=>100 nM-≤500 nM; C=>500 nM and N.D.=not determined.
# [2] = test system: Karpas 422 cells (EZH2 Y641N); assay: Karpas 422 cell viability (Cell Titre Glo); format: cell-based, human; details: Day 4, Day 7 or Day 11 (time point not given), read-out: IC50 (nM), Inhibiting Proliferation of Cells Expressing an Activating Mutant Form of EZH2
# Procedure: Karpas 422 cell line is a human B cell non-Hodgkin's lymphoma cell line established from a patient having DLBCL. This EZH2 heterozygotic cell line expresses a mutant form of EZH2 enzyme (Y641N) that increases histone H3 methylation and this mutation has been implicated in the tumorgenesis of lymphomas, such as DLBCL.
# Karpas 422 cells (PHE cat no.,06101702) were cultured in RPMI medium supplemented with 20% fetal bovine serum and 1% penicillin/1% streptomycin and plated at a density of 1000 cells/90 μl/well in 96 well white assay plates. A dose response curve for compounds of the present invention was determined by adding a 10 μl aliquot of stock solutions of varying concentrations of compounds to the same medium in each well, over a concentration range of 10 μM using 3-fold dilutions to a final concentration of 1.5 nM. The plates were incubated at 37° C. for predetermined time periods, Day 4, Day 7, or Day 11, and the viability of the cells was measured using a CTG assay kit (Cell Titre Glo; Promega cat. no G7573) on Day 4 and Day 7 in accordance with the manufacturer's instructions.
# For the viability assay for the Day 11 plates, the plates were subjected to centrifugation at 1100 rpm for five minutes on Day 7 and the supernatant was removed by aspiration. The cells were resuspended in 90 μl aliquot of the appropriate growth medium lacking the compound followed by addition of 10 μl of a 10× stock of the same compound at the same concentration. The viability of the Day 11 cells was measured using the CTG assay kit described above in accordance with the manufacturer's instructions. The IC50 values for each compound at each predetermined time point were calculated using Graph pad PRISM software and the results are shown in Table 15. A=≤250 nM; B=<250 nM-≤500 nM; and C=>500 nM.
# [3] = molecular target: purified human, His-tagged PRC2 complex (Homo sapiens (Human), UniProt O75530); assay: Hot Spot HMT assay of PRC2 enzymatic activity; format: biochemical; details: 10 nM PRC2 complex, core histone H3, 1 uM 3H-SAM, 1 hr at 30° C; read-out: IC50, Inhibition of PRC2-mediated Enzymatic Activity
# Chain of purified human, His-tagged PRC2 complex (Q15910 whole entry): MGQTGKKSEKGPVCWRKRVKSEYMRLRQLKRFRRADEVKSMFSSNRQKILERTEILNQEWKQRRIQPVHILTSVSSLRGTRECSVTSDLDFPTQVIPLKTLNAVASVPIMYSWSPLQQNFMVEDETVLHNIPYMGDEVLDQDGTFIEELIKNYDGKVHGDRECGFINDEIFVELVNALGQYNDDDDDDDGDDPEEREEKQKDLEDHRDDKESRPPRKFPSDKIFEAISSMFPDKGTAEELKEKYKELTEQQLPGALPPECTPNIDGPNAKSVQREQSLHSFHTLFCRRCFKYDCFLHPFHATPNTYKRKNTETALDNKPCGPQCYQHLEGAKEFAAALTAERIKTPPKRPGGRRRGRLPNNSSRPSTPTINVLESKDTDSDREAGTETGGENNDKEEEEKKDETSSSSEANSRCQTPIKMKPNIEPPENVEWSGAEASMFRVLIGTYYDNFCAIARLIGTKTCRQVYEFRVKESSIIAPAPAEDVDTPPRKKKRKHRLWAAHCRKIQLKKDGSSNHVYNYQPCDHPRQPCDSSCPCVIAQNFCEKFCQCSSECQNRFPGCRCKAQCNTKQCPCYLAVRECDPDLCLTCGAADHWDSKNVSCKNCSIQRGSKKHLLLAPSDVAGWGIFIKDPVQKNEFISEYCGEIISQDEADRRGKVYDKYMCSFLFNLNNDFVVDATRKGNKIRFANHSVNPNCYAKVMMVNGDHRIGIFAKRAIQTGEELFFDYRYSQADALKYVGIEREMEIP
# Chain of purified human, His-tagged PRC2 complex (O75530 whole entry): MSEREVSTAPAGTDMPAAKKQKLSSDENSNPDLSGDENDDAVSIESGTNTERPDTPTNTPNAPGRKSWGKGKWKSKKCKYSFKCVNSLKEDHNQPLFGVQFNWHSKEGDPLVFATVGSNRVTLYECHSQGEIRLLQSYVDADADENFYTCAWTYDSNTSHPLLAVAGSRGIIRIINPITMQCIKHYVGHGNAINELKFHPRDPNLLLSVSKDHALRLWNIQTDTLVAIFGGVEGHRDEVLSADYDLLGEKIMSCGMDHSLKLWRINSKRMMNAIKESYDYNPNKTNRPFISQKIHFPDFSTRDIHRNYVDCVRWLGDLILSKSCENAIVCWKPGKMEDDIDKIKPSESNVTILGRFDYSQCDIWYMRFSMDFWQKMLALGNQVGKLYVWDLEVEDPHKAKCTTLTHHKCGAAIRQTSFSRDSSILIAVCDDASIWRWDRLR
# Chain of purified human, His-tagged PRC2 complex (Q15022 whole entry partner): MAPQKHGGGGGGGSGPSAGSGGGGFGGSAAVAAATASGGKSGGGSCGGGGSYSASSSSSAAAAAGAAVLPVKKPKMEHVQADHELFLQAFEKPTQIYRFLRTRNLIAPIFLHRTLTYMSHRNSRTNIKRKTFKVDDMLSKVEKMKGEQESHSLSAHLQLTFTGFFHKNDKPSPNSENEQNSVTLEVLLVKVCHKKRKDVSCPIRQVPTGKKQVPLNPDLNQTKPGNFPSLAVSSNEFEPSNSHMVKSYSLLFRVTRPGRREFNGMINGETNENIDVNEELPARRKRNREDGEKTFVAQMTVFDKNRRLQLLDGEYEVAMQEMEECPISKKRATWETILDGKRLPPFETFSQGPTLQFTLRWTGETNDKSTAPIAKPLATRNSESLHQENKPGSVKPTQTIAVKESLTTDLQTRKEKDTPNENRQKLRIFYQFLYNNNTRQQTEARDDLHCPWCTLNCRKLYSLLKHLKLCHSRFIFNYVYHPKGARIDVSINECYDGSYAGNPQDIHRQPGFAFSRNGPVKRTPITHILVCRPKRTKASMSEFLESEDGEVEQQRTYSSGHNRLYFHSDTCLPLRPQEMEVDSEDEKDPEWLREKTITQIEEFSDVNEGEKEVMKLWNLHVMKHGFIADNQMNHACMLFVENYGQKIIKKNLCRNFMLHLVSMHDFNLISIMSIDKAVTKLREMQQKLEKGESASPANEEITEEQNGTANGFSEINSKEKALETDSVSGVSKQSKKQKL
# Chain of purified human, His-tagged PRC2 complex (Q6ZN18 whole entry partner): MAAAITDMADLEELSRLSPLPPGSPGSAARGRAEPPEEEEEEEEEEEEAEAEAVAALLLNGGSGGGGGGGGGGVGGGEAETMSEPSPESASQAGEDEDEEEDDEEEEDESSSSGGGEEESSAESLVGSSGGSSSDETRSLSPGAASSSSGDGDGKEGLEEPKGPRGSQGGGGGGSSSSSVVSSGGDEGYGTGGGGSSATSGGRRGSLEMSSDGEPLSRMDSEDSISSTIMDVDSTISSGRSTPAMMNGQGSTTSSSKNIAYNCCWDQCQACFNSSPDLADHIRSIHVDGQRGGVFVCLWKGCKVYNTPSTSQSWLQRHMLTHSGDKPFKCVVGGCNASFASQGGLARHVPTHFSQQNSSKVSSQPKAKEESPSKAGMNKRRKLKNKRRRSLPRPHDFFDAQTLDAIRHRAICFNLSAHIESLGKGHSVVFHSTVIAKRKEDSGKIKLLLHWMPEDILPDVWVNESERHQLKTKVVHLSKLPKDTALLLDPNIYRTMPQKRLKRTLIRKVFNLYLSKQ
# Chain of purified human, His-tagged PRC2 complex (Q09028 whole entry partner): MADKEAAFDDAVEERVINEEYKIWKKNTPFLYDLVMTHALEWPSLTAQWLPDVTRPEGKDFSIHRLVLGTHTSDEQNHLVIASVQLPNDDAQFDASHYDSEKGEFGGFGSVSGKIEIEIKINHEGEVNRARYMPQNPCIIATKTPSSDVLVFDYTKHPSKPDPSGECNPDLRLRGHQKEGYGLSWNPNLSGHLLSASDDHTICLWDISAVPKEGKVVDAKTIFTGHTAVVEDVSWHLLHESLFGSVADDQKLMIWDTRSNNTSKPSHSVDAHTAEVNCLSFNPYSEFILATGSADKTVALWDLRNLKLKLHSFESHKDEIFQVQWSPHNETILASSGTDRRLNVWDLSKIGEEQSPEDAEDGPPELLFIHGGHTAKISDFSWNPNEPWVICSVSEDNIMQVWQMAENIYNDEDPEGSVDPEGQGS
IC50 [1],IC50 [2],IC50 ([1]; Homo sapiens),IC50 ([2]; Homo sapiens),IC50 [3],SMILES
100 to 500 nM,250 to 500 nM,–,–,–,N#Cc1cn2c(NCc3c(F)ccc4c3CCO4)ncc(-c3cnn(CC4CCOC4)c3)c2n1 (stereo not drawn) [compound 154]
–,–,100 to 500 nM,≤ 250 nM,–,Cc1nc(N2CCOCC2)ccc1-c1cnc(NCc2c(F)ccc3c2CCO3)n2cc(C#N)nc12 [Example 56]
–,–,< 100 nM,≤ 250 nM,< 100 nM,N#Cc1cn2c(NCc3c(F)ccc4c3CCO4)ncc(-c3cnc(C4CC4)cn3)c2n1 [Example 70]

SMILES,IC50 [1],IC50 [2],IC50 ([1]; Homo sapiens),IC50 ([2]; Homo sapiens),IC50 [3]
CN1CCC1c1ccc(-c2cnc(NCc3c(F)ccc4c3CCO4)n3cc(C#N)nc23)cc1 (stereo not drawn) [Example 221],–,–,100 to 500 nM,≤ 250 nM,–
